Here are results for 10 compounds from patent publication US9133217B2 (Salix Pharmaceuticals, Ltd, priority 2011, dated 2015).

Type in all cases: physicochemical
Data set [1] in a line: Stressing under various relative humidities / temperature and vacuum, resulting solid form by XRPD. How it is done: The jar was sealed and stored at either ambient temperature or in an oven at elevated temperature.
(§1) X-ray powder diffraction (XRPD) analyses were performed using an Inel XRG-3000 diffractometer equipped with a CPS (Curved Position Sensitive) detector with a […] of 120°. Real time data were collected using Cu—Kα radiation. The tube voltage and amperage were set to 40 kV and 30 mA, respectively. The monochromator slit was set at 1-5 mm by 160 μm. […] Samples were prepared for analysis by packing them into thin-walled glass capillaries. Each capillary was mounted onto a goniometer head that is motorized to permit spinning of the capillary during data acquisition. The samples were analyzed for 300 seconds. Instrument calibration was performed using a silicon reference standard.
Samples were also analyzed using a PANalytical X'Pert Pro diffractometer. The specimen was analyzed using Cu radiation produced using an Optix long fine-focus source. An elliptically graded multilayer mirror was used to focus the Cu K α X-rays of the source through the specimen and onto the detector. The specimen was sandwiched between 3-micron thick films, analyzed in transmission geometry, and rotated to optimize orientation statistics. A beam-stop and a helium purge were used to minimize the background generated by air scattering. Soller slits were used for the incident and diffracted beams to minimize axial divergence. Diffraction patterns were collected using a scanning position-sensitive detector (X'Celerator) located 240 mm from the specimen […] a silicon specimen (NIST standard reference material 640c) was analyzed to verify the position of the silicon 111 peak.

The nature of data set [2]: Moisture sorption/desorption (dynamic vapor sorption, DVS). To be noted: for weight gain from 5 to 95% RH / weight gain (adsorption) from 5 to 95% RH: sorption 5 to 95% RH; for Post-DVS XRPD (solid form after moisture sorption): specimen after DVS cycle 5-95-5% RH; for hygroscopicity (in words): from moisture sorption/desorption. How it is done: Automated vapor sorption (VS) data were collected on a VTI SGA-100 Vapor Sorption Analyzer. NaCl and PVP were used as calibration standards. Samples were not dried prior to analysis. Sorption and desorption data were collected over a range from 5 to 95% RH at 10% RH increments under a nitrogen purge. The equilibrium criterion used for analysis was less than 0.0100% weight change in 5 minutes with a maximum equilibration time of 3 hours. Data were not corrected for the initial moisture content of the samples.
Moisture sorption/desorption data were collected on a VTI SGA-100 Vapor Sorption Analyzer. Sorption and desorption data were collected over a range of 5% to 95% relative humidity (RH) at 10% RH intervals under a nitrogen purge. Samples were not dried prior to analysis. Equilibrium criteria used for analysis were less than 0.0100% weight change in 5 minutes, with a maximum equilibration time of 3 hours if the weight criterion was not met. Data were not corrected for the initial moisture content of the samples. NaCl and PVP were used as calibration standards.

Data set [3] can be described thus: Rifaximin drying experiments, resulting solid form by XRPD. On the procedure:
as §1

Entries after “also recorded” stand apart in the source; their conditions may differ. Like-named read-outs stand apart in the source and are kept apart here.

Consider `CO[C@H]1/C=C/O[C@@]2(C)Oc3c(C)c(O)c4c(O)c(c5c(nc6cc(C)ccn65)c4c3C2=O)NC(=O)/C(C)=C\C=C\[C@H](C)[C@H](O)[C@@H](C)[C@@H](O)[C@@H](C)[C@H](OC(C)=O)[C@@H]1C` [Form Mu, Rifaximin], for which the “XRPD result after stress” value in data set [1] (59-62° C./Vacuum, ~24 hours) is on record as “γ”; in data set [1] (60° C./Vacuum, ~24 hours, listed as Form μ), “irreversibly desolvates to Form Gamma; also recorded: irreversibly desolvates to Form γ”; in data set [1] (60° C./Vacuum, ~24 hours, listed as Rifaximin Form μ) it was “γ”; in data set [1] (97% RH (RT), 16 days, listed as Form μ), “converted to Form Beta”; in data set [1] (97% RH (RT), 16 days, listed as Rifaximin Form μ), “μ + β”. Besides, in data set [2] (DVS, desorption 95 to 5% RH, listed as rifaximin Form μ), the “weight loss from 95 to 5% RH” value was determined as 9.3%. For the same compound, in data set [2] (DVS, equilibration at 5% RH, listed as rifaximin Form μ), the “initial weight loss upon equilibration at 5% RH” value is recorded as 11.0%. Also, in data set [2] (DVS, listed as rifaximin Form μ), the “weight gain from 5 to 95% RH” value is 9.5%. In data set [2] (moisture balance, desorption), the “% wt lost from 95%-5% RH” value is listed as 9.3 % wt lost from 95%-5% RH. Besides, in data set [2] (moisture balance, equilibration at 5% RH, signed change), the “% wt change upon equilibration at 5% RH” value is listed as −11.0 % wt change upon equilibration at 5% RH. For the same compound, in data set [2] (moisture balance, sorption), the “% wt gain from 5%-95% RH” value was 9.5 % wt gain from 5%-95% RH. Moreover, the “Post-DVS XRPD (solid form after moisture sorption)” value (from here on “Post-DVS XRPD”) in data set [2] (listed as Rifaximin Form Mu) is reported as “Form γ”; in data set [2] (listed as rifaximin Form μ), “converted to Form Gamma”.

As for `CO[C@H]1/C=C/O[C@@]2(C)Oc3c(C)c(O)c4c(O)c(c5c(nc6cc(C)ccn65)c4c3C2=O)NC(=O)/C(C)=C\C=C\[C@H](C)[C@H](O)[C@@H](C)[C@@H](O)[C@@H](C)[C@H](OC(C)=O)[C@@H]1C` [Form Omicron, Rifaximin], in data set [2], the “wt % change on equilibration at 5% RH” value is reported as −15.0 wt % change on equilibration at 5% RH. For the same compound, the “initial weight loss at 5% RH upon equilibration” value in data set [2] (DVS, equilibration at 5% RH, listed as Rifaximin Form Omicron) is recorded as ~15 wt %. Moreover, the “Post-DVS XRPD” value in data set [2] (listed as Rifaximin Form Omicron) is reported as “Form Iota with a significant amount of disorder”.

On to `CO[C@H]1/C=C/O[C@@]2(C)Oc3c(C)c(O)c4c(O)c(c5c(nc6cc(C)ccn65)c4c3C2=O)NC(=O)/C(C)=C\C=C\[C@H](C)[C@H](O)[C@@H](C)[C@@H](O)[C@@H](C)[C@H](OC(C)=O)[C@@H]1C` [Form Zeta, Rifaximin], for which the “XRPD Form after stressing” value in data set [1] (43% RH, 3 days, room temperature) is on record as “conversion to Form γ”; in data set [1] (43% RH, 3 days, room temperature, listed as Form ζ), “conversion to Form γ”; in data set [1] (43% RH, 3 days, room temperature, listed as ζ), “γ”; in data set [1] (58% RH, 3 days, room temperature, listed as ζ) it was “ζ”; in data set [1] (75% RH, 3 days, room temperature, listed as ζ), “ζ”; in data set [1] (94% RH, 3 days, room temperature, listed as Form ζ), “Form γ+γ−1”. In addition, the “XRPD Form after stressing” value in data set [1] (94% RH, 3 days, room temperature, listed as ζ) is “β + ζ”; in data set [1] (stability chamber 75% RH @40° C., 1 day), “ζ + Y”. For the same compound, the “form after exposure to humidity (XRPD)” value in data set [1] (51% RH (RT), ~20 min) is reported as “converts to Form Mu”; in data set [1] (51% RH (RT), ~20 min, listed as ζ), “μ”. The “XRPD Form after drying” value is “γ” in data set [3] (air dry); “γ” in data set [3] (open vial in hood); “γ + η” in data set [3] (vac dry); “Form η” in data set [3] (vac oven / under vacuum, ambient, 1 day); “η” in data set [3] (vac oven / under vacuum, ambient, 1 day, listed as ζ); “remained unchanged” in data set [3] (vac oven, 40° C., 1 day). Further, the “XRPD Form after drying” value in data set [3] (vac oven, 45° C., 2 days) is given as “η”. In data set [3] (stored in refrigerator 3 weeks), the “XRPD Form after storage” value was “ζ”.

For the compound `CO[C@H]1/C=C/O[C@@]2(C)Oc3c(C)c(O)c4c(O)c(c5c(nc6cc(C)ccn65)c4c3C2=O)NC(=O)/C(C)=C\C=C\[C@H](C)[C@H](O)[C@@H](C)[C@@H](O)[C@@H](C)[C@H](OC(C)=O)[C@@H]1C` [Form Xi, Rifaximin], the “weight loss from 95 to 5% RH” value in data set [2] (DVS, desorption 95 to 5% RH, listed as rifaximin Form Xi) is 10.5%. Moreover, the “initial weight loss upon equilibration at 5% RH” value in data set [2] (DVS, equilibration at 5% RH, listed as rifaximin Form Xi) is 7.2%. Moreover, the “weight gain from 5 to 95% RH” value in data set [2] (DVS, listed as rifaximin Form Xi) is 7.9%. The “Post-DVS XRPD” value in data set [2] (listed as rifaximin Form Xi) is on record as “became disordered”.

As to `CO[C@H]1/C=C/O[C@@]2(C)Oc3c(C)c(O)c4c(O)c(c5c(nc6cc(C)ccn65)c4c3C2=O)NC(=O)/C(C)=C\C=C\[C@H](C)[C@H](O)[C@@H](C)[C@@H](O)[C@@H](C)[C@H](OC(C)=O)[C@@H]1C` [Form Gamma, Rifaximin, reference compound], the “XRPD Form after drying” value in data set [3] (vac oven / under vacuum, ambient, 1 day, listed as Form γ) is “remained unchanged”. For the same compound, the “weight loss from 95 to 5% RH” value in data set [2] (DVS, desorption 95 to 5% RH, listed as Rifaximin Form Gamma) was 11.7%. Further, the “initial weight loss upon equilibration at 5% RH” value in data set [2] (DVS, equilibration at 5% RH, listed as Rifaximin Form Gamma) was determined as 2.4%. The “weight gain from 5 to 95% RH” value in data set [2] (DVS, listed as Rifaximin Form Gamma) amounted to 10.8%. For the same compound, the “hygroscopicity (in words)” value in data set [2] (listed as Rifaximin Form Gamma) was “hygroscopic”.

As to `CO[C@H]1/C=C/O[C@@]2(C)Oc3c(C)c(O)c4c(O)c(c5c(nc6cc(C)ccn65)c4c3C2=O)NC(=O)/C(C)=C\C=C\[C@H](C)[C@H](O)[C@@H](C)[C@@H](O)[C@@H](C)[C@H](OC(C)=O)[C@@H]1C` [Form Theta, Rifaximin, reference compound], the “form after exposure to humidity (XRPD)” value is “μ + η” in data set [1] (75% RH (40° C.), 6 hrs); “convert at least partially to Form μ” in data set [1] (75% RH (RT), 6 hrs); “convert to Form μ” in data set [1] (75% RH (RT), 6 hrs, listed as Rifaximin Form Theta); “μ + ι” in data set [1] (75% RH (RT), 6 hrs, listed as θ).

In the case of `CO[C@H]1/C=C/O[C@@]2(C)Oc3c(C)c(O)c4c(O)c(c5c(nc6cc(C)ccn65)c4c3C2=O)NC(=O)/C(C)=C\C=C\[C@H](C)[C@H](O)[C@@H](C)[C@@H](O)[C@@H](C)[C@H](OC(C)=O)[C@@H]1C` [α, Rifaximin, reference compound], in data set [1] (P205, 4 days, room temperature), the “XRPD Form after stressing” value is listed as “α dry”.

As for `CO[C@H]1/C=C/O[C@@]2(C)Oc3c(C)c(O)c4c(O)c(c5c(nc6cc(C)ccn65)c4c3C2=O)NC(=O)/C(C)=C\C=C\[C@H](C)[C@H](O)[C@@H](C)[C@@H](O)[C@@H](C)[C@H](OC(C)=O)[C@@H]1C` [Form Eta, Rifaximin], the “XRPD Form after drying” value in data set [3] (vac oven, 40° C., 1 day, listed as η) is reported as “η”.

On to `CO[C@H]1/C=C/O[C@@]2(C)Oc3c(C)c(O)c4c(O)c(c5c(nc6cc(C)ccn65)c4c3C2=O)NC(=O)/C(C)=C\C=C\[C@H](C)[C@H](O)[C@@H](C)[C@@H](O)[C@@H](C)[C@H](OC(C)=O)[C@@H]1C` [Form Pi, Rifaximin], for which the “weight lost from 95 to 5% RH” value in data set [2] (DVS, desorption 95 to 5% RH) is reported as 11.3 wt % lost from 95 to 5% RH. For the same compound, the “weight loss from 95 to 5% RH” value in data set [2] (DVS, desorption 95 to 5% RH, listed as Rifaximin Form Pi) was determined as 11.3%. Besides, the “initial weight loss at 5% RH upon equilibration” value in data set [2] (DVS, equilibration at 5% RH) worked out at 1.3 wt %. For the same compound, in data set [2] (DVS, equilibration at 5% RH, signed change), the “wt % change on equilibration at 5% RH” value is listed as −1.3 wt % change on equilibration at 5% RH. Moreover, the “weight gain (adsorption) from 5 to 95% RH” value is 10.5 wt % in data set [2] (DVS, listed as Rifaximin Form Pi) and 10.5 wt % gain from 5 to 95% RH in data set [2] (DVS, listed as Rifaximin Pi). In addition, the “hygroscopicity (in words)” value in data set [2] (listed as Rifaximin Form Pi) was “reversibly hygroscopic”. Further, the “Post-DVS XRPD” value in data set [2] (listed as Rifaximin Form Pi) was “Form Pi”; in data set [2] (listed as Rifaximin Pi), “Pi”.

In the case of `CO[C@H]1/C=C/O[C@@]2(C)Oc3c(C)c(O)c4c(O)c(c5c(nc6cc(C)ccn65)c4c3C2=O)NC(=O)/C(C)=C\C=C\[C@H](C)[C@H](O)[C@@H](C)[C@@H](O)[C@@H](C)[C@H](OC(C)=O)[C@@H]1C` [α dry, Rifaximin, reference compound], the “XRPD Form after stressing” value is listed as “β” in data set [1] (58% RH, 2 days, room temperature); “β” in data set [1] (75% RH, 2 days, room temperature); “β” in data set [1] (94% RH, 2 days, room temperature).
